Tests used:
[1] = target: T1, Cytochrome P450 26B1 (Homo sapiens, UniProt Q9NR63); test: (§1) Cell-Based Inhibitor Assay: CYP26A1 or CYP26B1 stably transfected HeLa cells were maintained in Minimum Essential Medium (MEM) containing 10% fetal bovine serum (FBS) and 100 μg/mL hygromycin. Exponentially growing cells were harvested by incubation in trypsin. Cells were then collected and re-plated in 48-well culture plates at 5×10^5 cells in 0.2 mL of culture medium containing 0.05 μCi [3H]-RA in the presence or absence of increasing concentrations of a test compound. The test compounds were diluted in dimethyl sulfoxide (DMSO) and then added in duplicate to wells at 0.01, 0.1, 1, 10 and 100 μM final concentration. […] Cells were incubated for 3 hours at 37° C. Retinoids were then extracted using the procedure of Bligh, et al., (1959), Canadian Journal of Biochemistry 37, 911-917, which was modified by using dichloromethane instead of chloroform. Each sample's water soluble radioactivity level was quantified using a β-scintillation counter (using Ecolume scintillation fluid, available from MP Biomedicals of Solon, Ohio, USA).
T1 sequence (Q9NR63 whole entry): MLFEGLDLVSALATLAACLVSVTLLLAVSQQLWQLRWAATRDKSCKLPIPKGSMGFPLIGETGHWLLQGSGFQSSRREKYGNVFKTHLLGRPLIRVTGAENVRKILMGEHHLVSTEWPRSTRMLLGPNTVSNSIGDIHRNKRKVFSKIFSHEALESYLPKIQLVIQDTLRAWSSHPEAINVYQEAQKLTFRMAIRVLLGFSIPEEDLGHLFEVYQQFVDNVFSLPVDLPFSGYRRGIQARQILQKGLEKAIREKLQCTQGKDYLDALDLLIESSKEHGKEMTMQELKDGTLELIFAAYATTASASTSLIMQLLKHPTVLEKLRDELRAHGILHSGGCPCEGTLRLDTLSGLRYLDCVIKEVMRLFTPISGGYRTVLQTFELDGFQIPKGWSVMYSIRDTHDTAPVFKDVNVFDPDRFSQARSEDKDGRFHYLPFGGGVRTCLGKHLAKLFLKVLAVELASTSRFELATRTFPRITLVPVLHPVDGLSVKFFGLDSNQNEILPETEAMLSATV

[2] = target: T2, Cytochrome P450 26A1 (Homo sapiens, UniProt O43174); test: as §1
T2 sequence (O43174 whole entry): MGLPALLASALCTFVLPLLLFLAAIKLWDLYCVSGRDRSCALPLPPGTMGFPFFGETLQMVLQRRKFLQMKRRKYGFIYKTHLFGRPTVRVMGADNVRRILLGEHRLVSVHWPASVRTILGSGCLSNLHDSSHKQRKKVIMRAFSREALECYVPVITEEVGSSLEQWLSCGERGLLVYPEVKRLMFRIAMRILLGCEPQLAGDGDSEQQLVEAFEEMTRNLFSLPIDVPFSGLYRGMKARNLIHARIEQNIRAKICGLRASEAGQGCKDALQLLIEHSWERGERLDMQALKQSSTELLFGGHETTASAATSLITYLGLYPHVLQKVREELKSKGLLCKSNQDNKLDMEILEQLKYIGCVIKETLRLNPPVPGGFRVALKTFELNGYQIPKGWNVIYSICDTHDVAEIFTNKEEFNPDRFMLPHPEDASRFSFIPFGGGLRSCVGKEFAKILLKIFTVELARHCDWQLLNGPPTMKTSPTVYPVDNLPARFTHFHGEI

Row | Compound | IC50 [1] [µM] | IC50 [2] [µM]
1 | Cc1ccc(NS(=O)(=O)c2cc(C)c3c(c2)C(C)(C)CC(C)(C)O3)cc1 | 21.8 | 1.9
2 | Cc1cc2c(cc1S(=O)(=O)Nc1ccc(CC(=O)O)cc1)C(C)(C)CCC2(C)C | > 1000 | 0.47

— ChEMBL document CHEMBL5728169, “Compounds and methods for inhibiting CYP26 enzymes” (2020)
